We go through six compounds from patent US12187742B2 (XRAD Therapeutics, Inc., priority 2018, dated 2025).

Structures can show the parent of a compound that is named as a salt.

The target of one assay is DNA-PK (Homo sapiens (Human), UniProt P78527). The experiment in a line: DNA-PK Enzyme-Linked Immunosorbent Assay (phosphorylation of GST-p53 (1-101) peptide). The settings on record: ELISA. It is filed as biochemical. Summed up: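 ELISA with plate-bound GST-p53 (1-101) phosphorylated by DNA-PK (0.1 μg/mL final) with 20 μM ATP for 1 h at 25 °C. Compounds tested over 10 3-fold doses from 100 nM top final. Phospho-p53 Ser15 detected by antibody, HRP and TMB, absorbance at 450 nm.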

The target in a further assay is ATM (Homo sapiens (Human), UniProt Q13315). The experiment in a line: ATM in Cell Western Assay (pKAP1 in etoposide-treated MCF-7 cells). Type of assay: cell-based. Summed up: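 Cells received compounds in a 10-dose, 3-fold series from a 1 μM final top concentration, then 100 μM etoposide, for 1 hr at 37° C. They were then fixed with paraformaldehyde and permeabilized with 0.1% Triton X-100. After immunostaining, plates were scanned on an infrared imager.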
ATM, sequence (Q13315 whole entry): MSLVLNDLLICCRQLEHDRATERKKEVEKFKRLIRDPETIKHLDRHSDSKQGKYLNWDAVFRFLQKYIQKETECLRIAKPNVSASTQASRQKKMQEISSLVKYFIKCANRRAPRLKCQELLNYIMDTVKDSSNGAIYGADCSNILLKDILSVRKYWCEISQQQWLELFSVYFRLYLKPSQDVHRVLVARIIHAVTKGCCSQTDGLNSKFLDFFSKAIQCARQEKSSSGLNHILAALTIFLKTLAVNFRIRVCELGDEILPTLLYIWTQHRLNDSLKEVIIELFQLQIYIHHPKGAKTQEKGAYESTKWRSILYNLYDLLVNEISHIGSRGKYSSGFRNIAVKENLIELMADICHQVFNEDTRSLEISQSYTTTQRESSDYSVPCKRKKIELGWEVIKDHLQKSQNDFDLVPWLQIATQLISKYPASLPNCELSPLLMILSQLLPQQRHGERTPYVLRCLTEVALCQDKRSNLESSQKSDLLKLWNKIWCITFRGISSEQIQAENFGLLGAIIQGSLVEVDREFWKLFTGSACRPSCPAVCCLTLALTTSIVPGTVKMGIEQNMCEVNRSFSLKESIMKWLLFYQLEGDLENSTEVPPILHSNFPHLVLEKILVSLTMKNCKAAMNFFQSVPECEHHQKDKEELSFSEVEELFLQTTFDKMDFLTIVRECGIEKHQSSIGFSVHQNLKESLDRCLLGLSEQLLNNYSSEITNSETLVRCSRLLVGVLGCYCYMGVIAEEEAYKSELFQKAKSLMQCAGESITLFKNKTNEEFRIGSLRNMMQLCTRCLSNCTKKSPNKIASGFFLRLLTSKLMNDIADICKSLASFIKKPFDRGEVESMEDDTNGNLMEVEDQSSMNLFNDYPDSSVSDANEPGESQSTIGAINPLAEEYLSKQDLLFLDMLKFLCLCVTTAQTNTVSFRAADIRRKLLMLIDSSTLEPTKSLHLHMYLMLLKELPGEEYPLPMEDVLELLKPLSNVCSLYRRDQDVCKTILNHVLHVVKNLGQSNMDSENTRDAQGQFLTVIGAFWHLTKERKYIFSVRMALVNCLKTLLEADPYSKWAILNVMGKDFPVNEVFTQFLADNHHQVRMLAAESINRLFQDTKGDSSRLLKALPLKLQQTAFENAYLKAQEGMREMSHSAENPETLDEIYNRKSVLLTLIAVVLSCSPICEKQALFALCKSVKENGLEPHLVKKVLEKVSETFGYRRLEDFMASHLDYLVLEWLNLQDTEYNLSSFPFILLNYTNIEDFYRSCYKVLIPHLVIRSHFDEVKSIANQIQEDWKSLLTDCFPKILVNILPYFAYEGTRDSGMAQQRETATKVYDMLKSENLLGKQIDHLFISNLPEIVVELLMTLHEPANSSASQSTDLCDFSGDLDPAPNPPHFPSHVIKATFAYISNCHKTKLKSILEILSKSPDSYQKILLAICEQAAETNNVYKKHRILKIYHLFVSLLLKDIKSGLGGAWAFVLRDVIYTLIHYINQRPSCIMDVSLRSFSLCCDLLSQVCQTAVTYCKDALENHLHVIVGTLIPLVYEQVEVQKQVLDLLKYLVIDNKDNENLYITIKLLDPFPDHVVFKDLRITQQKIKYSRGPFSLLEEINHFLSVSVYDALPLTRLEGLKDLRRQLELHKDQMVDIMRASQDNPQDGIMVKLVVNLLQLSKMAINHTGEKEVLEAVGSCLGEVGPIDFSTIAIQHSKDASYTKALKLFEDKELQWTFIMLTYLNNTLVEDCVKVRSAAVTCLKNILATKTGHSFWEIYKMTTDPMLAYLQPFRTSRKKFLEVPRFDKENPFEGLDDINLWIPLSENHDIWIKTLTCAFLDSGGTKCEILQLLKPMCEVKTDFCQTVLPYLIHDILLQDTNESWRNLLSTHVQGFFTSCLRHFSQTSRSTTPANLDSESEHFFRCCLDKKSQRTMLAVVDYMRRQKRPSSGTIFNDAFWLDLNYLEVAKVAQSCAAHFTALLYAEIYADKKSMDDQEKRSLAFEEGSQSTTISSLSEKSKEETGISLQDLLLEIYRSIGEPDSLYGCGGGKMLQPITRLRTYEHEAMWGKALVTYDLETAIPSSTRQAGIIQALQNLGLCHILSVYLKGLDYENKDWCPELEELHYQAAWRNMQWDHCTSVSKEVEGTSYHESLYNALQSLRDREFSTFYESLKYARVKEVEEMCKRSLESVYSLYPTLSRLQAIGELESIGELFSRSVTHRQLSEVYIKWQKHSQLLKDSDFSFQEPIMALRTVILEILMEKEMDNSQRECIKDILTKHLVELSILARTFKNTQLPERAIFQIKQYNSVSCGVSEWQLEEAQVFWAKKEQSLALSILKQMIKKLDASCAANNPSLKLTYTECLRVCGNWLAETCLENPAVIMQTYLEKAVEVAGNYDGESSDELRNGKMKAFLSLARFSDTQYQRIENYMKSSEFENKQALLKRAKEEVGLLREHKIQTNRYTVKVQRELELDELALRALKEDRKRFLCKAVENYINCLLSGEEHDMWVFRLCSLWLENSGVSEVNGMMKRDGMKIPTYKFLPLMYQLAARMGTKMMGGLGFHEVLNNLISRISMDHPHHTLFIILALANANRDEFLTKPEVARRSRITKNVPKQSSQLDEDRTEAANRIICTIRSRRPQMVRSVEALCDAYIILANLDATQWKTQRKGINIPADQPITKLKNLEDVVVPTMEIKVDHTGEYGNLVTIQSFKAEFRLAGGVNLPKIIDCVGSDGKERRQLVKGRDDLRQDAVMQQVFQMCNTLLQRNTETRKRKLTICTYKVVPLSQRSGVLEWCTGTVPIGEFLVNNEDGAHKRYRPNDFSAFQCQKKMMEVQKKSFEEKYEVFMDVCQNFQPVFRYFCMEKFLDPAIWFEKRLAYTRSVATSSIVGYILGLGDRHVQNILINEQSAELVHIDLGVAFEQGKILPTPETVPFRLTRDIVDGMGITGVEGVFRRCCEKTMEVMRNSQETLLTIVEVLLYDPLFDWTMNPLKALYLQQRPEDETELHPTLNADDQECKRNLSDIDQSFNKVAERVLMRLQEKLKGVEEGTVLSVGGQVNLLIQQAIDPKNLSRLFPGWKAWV

The mark [1] stands for this setting: MCF-7 cells, etoposide 100 μM, 1 hr, pKAP1 readout.

In the case of `CC(C)NCCOc1ncc(-c2cc3c(cc2F)ncc2c3[C@]3(C[C@H](c4cccc(F)c4)C3)C(=O)N2C)cc1NS(C)(=O)=O` [Example 424, cis-N-(5-(7′-Fluoro-3-(3-fluorophenyl)-3′-methyl-2′-oxo-2′,3′-dihydrospiro[cyclobutane-1,1′-pyrrolo[2,3-c]quinolin]-8′-yl)-2-(2-(isopropylamino)ethoxy)pyridin-3-yl)methanesulfonamide], the IC50 at DNA-PK (20 μM ATP) and against ATM (pKAP1 in etoposide-treated MCF-7 cells) was 1 to 100 nM in each case.

Consider `CCc1ncc(S(=O)(=O)Nc2cc(-c3ccc4ncc5c(c4c3)C3(CCC3)C(=O)N5C)cnc2OCCCN(C)C)s1` [Example 245, N-(2-(3-(Dimethylamino)propoxy)-5-(3′-methyl-2′-oxo-2′,3′-dihydrospiro [cyclobutane-1,1′-pyrrolo [2,3-c]quinolin]-8′-yl)pyridin-3-yl)-2-ethylthiazole-5-sulfonamide], for which the IC50 was less than 0.5 nM at DNA-PK (ATP 20 μM) and 1 to 100 nM on ATM (setting [1]).

`COc1ccc(S(=O)(=O)Nc2cc(-c3ccc4ncc5c(c4c3)C3(CC3)C(=O)N5C)cnc2OCCCN2CCCCC2)cc1` [Example 119, 4-Methoxy-N-(5-(3′-methyl-2′-oxo-2′,3′-dihydrospiro[cyclopropane-1,1′-pyrrolo[2,3-c]quinolin]-8′-yl)-2-(3-(piperidin-1-yl)propoxy)pyridin-3-yl(benzenesulfonamide hydrochloride]: the IC50 against DNA-PK (ATP 20 μM) is less than 0.5 nM; on ATM (setting [1]), 1 to 100 nM.

Regarding `CN1C(=O)C2(CC2)c2c1cnc1ccc(-c3cnc(N4CCC(N5CCCCC5)CC4)c(NS(=O)(=O)c4ccccc4)c3)cc21` [Example 213, N-(2-([1,4′-Bipiperidin]-1′-yl)-5-(3′-methyl-2′-oxo-2′,3′-dihydrospiro[cyclopropane-1,1′-pyrrolo[2,3-c]quinolin]-8′-yl)pyridin-3-yl)benzenesulfonamide methanesulfonate], the IC50 on DNA-PK (ATP 20 μM) and on ATM (setting [1]) was 1 to 100 nM each time.

Regarding `CN(C)CCCOc1ncc(-c2ccc3ncc4c(c3c2)C2(CC2)C(=O)N4C)cn1` [Example 71, 8′-(2-(3-(Dimethylamino)propoxy)pyrimidin-5-yl)-3′-methylspiro [cyclopropane-1,1′-pyrrolo[2,3-c]quinolin]-2′(3′-H)-one], the values for the IC50 on DNA-PK (ATP 20 μM) and against ATM (setting [1]) were greater than 100 nM and 1 to 100 nM, respectively.

On to `CN1C(=O)C2(CCC2)c2c1cnc1ccc(-c3cnc(OCCCN4CCCCC4)c(NS(=O)(=O)c4cc(F)cc(Cl)c4)c3)cc21` [Example 196, 3-Chloro-5-fluoro-N-(5-(3′-methyl-2′-oxo-2′,3′-dihydrospiro[cyclobulane-1,1′-pyrrolo[2,3-c]quinolin]-8′-yl)-2-(3-(piperidin-1-yl)propoxy)pyridin-3-yl)benzenesulfonamide hydrochloride], for which the IC50 on DNA-PK (ATP 20 μM) and against ATM (setting [1]) was 1 to 100 nM each time.
